The text below walks through data of ChEMBL document CHEMBL1201862, “PubChem BioAssay data set” (2004).

The nature of assay [1]: protection from phage-mediated lysis, alamar blue read-out – E. coli UTI89, K1F phage, bacterial capsule biogenesis inhibitors (AID 488966). The assay is classed as functional. Background: Alamar Blue is a resazurin reagent that responds to reducing activity.
The target in assay [2] is 1-acylglycerol-3-phosphate O-acyltransferase ABHD5/Perilipin-5 (Homo sapiens, UniProt Q00G26+Q8WTS1). Briefly: Luminescence-based biochemical high throughput dose response assay for inhibitors of the interaction of the lipase co-activator protein, abhydrolase domain containing 5 (ABHD5) with perilipin-5 (MLDP; PLIN5) (2K validation set). [Related pubchem assays (depositor defined):AID493035, AID493241].

The next assay concerns the target Perilipin-1/ABHD5 (Homo sapiens, UniProt O60240+Q8WTS1). Kind of assay: Luminescence-based biochemical high throughput dose response assay for inhibitors of the interaction of the lipase co-activator protein, abhydrolase domain containing 5 (ABHD5) with perilipin-1 (PLIN1) (2K validation set). [Related pubchem assays (depositor defined):AID493027, AID493057].
For assay [3], the system named is Streptococcus sp. 'group A'. Briefly: Streptococcus pyogenes SK(-)GAS viability under kanamycin – luminescence, BacTiterGlo, confirmation, counter-screen for streptokinase expression inhibitor project, dose response (AID 1900). The assay is classed as functional, organism-based. (In general: The purpose of a counterscreen is to sort out artefacts and off-target activity.)

The target in another assay is T1, Streptokinase A (Streptococcus pyogenes serotype M1, UniProt P10520).
T1 sequence (P10520 whole entry): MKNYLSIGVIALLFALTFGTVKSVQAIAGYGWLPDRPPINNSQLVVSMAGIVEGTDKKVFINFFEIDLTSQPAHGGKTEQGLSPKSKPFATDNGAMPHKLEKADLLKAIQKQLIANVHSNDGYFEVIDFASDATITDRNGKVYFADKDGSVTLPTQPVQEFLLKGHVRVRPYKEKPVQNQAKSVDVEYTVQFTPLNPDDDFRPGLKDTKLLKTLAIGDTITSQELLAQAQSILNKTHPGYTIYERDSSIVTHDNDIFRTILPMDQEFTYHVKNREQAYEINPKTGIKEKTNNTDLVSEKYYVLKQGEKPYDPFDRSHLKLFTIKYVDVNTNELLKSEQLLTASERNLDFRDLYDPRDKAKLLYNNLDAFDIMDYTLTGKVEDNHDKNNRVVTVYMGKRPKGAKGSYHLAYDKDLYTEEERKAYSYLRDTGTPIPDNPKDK
Kind of assay: viability-normalized secreted streptokinase activity reduction – plasminogen activation absorbance, OD405, dose response (AID 1914).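 Note: secreted streptokinase activity via plasminogen activation per viability signal from cell pellet.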 The assay is classed as functional, Streptococcus pyogenes M1 GAS.

In a further assay the test system is Streptococcus. Kind of assay: GAS UMAA2166 growth inhibition – luminescence, BacTiterGlo, counter-screen for streptokinase expression inhibitor project, dose response (AID 1915).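 Note: potency for reduction of bacterial viability or growth.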 The assay is classed as functional, organism-based.
For a further assay, the target named is Trypsin (Sus scrofa, UniProt P00761). Briefly: trypsin protease activity blockade – biochemical, quenched peptide fluorescence, cherry-pick, selectivity assay for Rce1 protease inhibitor project, dose response (AID 488789).
The target in a further assay is T2, CAAX prenyl protease 2 (Saccharomyces cerevisiae S288c, UniProt Q03530).
T2 sequence (Q03530 whole entry): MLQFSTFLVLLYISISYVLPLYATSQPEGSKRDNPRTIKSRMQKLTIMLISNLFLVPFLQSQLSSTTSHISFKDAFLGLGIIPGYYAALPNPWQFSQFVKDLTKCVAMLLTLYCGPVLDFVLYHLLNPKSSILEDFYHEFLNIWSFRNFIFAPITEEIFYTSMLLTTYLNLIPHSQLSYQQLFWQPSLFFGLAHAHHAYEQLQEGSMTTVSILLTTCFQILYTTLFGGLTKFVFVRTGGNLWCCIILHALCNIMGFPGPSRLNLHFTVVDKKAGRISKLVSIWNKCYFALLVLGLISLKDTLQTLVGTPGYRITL
The assay is classed as biochemical.

The nature of assay [4]: A549 cell cytotoxicity, dose response, cytotoxicity control, plate reader, cherry-pick, antagonist series (AID 743412). The assay is classed as functional, cell-based.
Assay [5] in a line: toxicity toward HepG2 liver cells – cell-based, plate reader, cherry-pick, antagonist series, cytotoxicity control, dose response (AID 743416). The assay is classed as functional.
A short description of assay [6]: blockers of bursicon-stimulated LGR2 cAMP reporter – cell-based, HEK293, CRE-luciferase reporter, cherry pick, set 2, dose response (AID 743343).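 Note: transfected cells were stimulated with diluted bursicon conditioned medium after compound addition.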 The assay is classed as functional. (Reporter assays use an easily measured gene product as a stand-in for the process of interest.)
Assay [7] in a line: blockade of melanocortin 4 receptor signaling – cell-based, plate reader, cherry pick, counter-screen for LGR2 antagonist project, dose response (AID 743444).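 Note: transfected HEK 293 cells stimulated with alpha-MSH peptide; potency of inhibitors of the alpha-MSH evoked signal.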 The assay is classed as functional.
A short description of assay [8]: viability loss in HEK293 cells – cell-based, plate reader, cherry-picked samples, cytotoxicity control, dose response (AID 743446). The assay is classed as functional.
The target in assay [9] is Eukaryotic translation initiation factor 4H (Homo sapiens, UniProt Q15056). Briefly: inhibitors of translation initiation factor eIF4H – SAR follow-up (AID 435011). The assay is classed as functional.
For assay [10], the target named is Polyadenylate-binding protein 1 (Homo sapiens, UniProt P11940). Briefly: PABP inhibition in translation initiation, SAR follow-up (AID 435018). The assay is classed as functional.
A further assay addresses Hexokinase (Trypanosoma brucei, UniProt Q38C41). Kind of assay: Confirmation assay for inhibitors of Trypanosoma brucei hexokinase 1-Analogue-first series. [Related pubchem assays (depositor defined):AID1430, AID1632, AID2516, AID2560, AID2579, AID2600, AID449725, AID492951]. The assay is classed as functional.
In the next assay the target is T3, Coagulation factor XII (Homo sapiens, UniProt P00748).
T3 sequence (P00748 whole entry): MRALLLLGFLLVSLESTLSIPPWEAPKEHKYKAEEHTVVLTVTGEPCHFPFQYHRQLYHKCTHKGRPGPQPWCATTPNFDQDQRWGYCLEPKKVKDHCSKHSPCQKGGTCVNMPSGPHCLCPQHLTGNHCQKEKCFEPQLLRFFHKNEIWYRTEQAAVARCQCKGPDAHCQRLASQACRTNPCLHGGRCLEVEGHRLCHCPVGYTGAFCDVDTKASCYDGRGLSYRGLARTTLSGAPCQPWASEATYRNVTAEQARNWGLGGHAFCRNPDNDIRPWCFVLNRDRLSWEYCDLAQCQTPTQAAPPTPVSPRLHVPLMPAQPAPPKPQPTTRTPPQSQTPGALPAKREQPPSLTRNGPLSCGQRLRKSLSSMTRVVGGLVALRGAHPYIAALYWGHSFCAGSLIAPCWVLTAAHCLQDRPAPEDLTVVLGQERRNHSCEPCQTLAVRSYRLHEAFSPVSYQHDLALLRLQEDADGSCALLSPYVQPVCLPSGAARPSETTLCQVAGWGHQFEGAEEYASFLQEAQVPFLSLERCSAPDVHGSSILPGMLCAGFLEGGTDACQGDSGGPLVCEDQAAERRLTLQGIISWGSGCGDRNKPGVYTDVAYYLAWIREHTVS
Kind of assay: activated coagulation factor XII inhibitor potency, concentration-effect curve, cell-free (AID 716). The assay is classed as functional.

SMILES strings stand for the structures. Active and inactive are the calls of the source. A value given as a limit tells only on which side of the number the result lay.

Chain of Perilipin-1/ABHD5 (Q8WTS1 whole entry, the tested form may be a part): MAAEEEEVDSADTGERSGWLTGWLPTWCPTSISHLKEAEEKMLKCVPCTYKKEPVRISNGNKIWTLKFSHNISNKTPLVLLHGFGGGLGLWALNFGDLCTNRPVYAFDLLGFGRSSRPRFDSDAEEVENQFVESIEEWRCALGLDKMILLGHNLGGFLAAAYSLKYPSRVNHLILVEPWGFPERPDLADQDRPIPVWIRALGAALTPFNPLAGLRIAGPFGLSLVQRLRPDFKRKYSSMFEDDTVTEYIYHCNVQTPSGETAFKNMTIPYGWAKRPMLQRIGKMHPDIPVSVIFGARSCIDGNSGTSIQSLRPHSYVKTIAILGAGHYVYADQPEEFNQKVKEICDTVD
Chain of Perilipin-1/ABHD5 (O60240 whole entry, the tested form may be a part): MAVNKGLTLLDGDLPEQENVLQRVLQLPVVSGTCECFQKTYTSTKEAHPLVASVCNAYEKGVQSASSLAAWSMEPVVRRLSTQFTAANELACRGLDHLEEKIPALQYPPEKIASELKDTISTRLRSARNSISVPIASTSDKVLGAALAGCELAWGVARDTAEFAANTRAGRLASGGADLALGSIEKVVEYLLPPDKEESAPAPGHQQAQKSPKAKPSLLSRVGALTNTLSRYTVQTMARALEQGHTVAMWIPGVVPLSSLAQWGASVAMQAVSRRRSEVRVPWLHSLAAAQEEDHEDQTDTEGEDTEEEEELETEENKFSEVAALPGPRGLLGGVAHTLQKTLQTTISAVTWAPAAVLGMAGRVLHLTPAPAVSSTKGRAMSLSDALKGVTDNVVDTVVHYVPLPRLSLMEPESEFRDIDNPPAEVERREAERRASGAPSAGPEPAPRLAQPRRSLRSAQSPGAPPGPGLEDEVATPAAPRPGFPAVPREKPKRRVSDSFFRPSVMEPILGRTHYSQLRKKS
Chain of Polyadenylate-binding protein 1 (P11940 whole entry): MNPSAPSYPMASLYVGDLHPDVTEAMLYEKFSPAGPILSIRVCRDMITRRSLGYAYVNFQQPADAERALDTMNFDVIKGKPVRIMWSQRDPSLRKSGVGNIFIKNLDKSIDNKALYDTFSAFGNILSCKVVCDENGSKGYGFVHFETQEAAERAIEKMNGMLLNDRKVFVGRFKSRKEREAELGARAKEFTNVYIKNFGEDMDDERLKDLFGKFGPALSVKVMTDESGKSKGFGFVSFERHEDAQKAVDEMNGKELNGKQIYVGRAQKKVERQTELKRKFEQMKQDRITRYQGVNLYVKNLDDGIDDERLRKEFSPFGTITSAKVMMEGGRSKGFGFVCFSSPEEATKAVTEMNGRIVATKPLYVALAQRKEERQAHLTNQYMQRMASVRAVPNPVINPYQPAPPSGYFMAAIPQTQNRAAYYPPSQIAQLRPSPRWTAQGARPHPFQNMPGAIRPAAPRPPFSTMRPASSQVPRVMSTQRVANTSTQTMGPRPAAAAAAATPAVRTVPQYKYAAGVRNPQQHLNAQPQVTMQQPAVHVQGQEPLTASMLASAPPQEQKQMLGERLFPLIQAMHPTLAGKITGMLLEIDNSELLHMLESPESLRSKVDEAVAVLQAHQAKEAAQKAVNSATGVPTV
Chain of Hexokinase (Q38C41 whole entry): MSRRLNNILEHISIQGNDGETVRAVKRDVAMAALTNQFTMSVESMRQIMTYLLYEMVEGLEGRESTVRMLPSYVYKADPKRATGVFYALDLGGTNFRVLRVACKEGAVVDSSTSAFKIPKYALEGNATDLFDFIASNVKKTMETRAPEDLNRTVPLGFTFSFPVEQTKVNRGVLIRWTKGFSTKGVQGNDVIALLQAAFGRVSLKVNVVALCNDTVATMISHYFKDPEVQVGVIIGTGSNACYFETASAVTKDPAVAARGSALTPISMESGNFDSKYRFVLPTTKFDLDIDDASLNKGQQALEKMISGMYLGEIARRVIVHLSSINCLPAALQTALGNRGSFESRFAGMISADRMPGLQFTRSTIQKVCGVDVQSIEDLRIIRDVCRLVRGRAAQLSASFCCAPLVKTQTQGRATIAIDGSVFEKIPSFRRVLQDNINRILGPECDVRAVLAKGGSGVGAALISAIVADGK
Chain of 1-acylglycerol-3-phosphate O-acyltransferase ABHD5/Perilipin-5 (Q00G26 whole entry, the tested form may be a part): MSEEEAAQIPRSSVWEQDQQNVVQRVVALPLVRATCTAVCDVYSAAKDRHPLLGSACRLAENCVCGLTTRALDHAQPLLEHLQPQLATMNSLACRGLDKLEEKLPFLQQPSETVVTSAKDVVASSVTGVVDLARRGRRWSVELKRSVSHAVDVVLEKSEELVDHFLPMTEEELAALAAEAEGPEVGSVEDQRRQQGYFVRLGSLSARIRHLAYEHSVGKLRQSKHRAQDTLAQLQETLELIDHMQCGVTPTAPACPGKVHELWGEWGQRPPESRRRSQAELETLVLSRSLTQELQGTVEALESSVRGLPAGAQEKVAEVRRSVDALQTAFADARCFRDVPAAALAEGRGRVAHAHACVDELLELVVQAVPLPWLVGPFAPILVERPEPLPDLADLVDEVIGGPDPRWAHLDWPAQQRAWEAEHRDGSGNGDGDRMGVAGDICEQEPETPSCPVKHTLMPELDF
Chain of 1-acylglycerol-3-phosphate O-acyltransferase ABHD5/Perilipin-5 (Q8WTS1 whole entry, the tested form may be a part): as the sequence (Q8WTS1 whole entry, the tested form may be a part) above
Chain of Trypsin (P00761 whole entry): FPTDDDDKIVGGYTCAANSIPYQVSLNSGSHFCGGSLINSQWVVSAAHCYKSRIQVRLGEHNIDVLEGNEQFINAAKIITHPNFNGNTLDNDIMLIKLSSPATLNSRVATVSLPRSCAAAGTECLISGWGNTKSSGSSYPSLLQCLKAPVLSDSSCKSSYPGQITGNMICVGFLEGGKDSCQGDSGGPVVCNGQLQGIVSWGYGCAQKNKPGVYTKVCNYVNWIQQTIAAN

As a reminder, the IC50 is the midpoint of a concentration-inhibition curve. Turning to `Cc1cc(C(=O)NN=Cc2ccc(OC(=O)c3ccco3)cc2)c(C)o1`, the IC50 in assay [1] was > 150 µM (active).

As for `COc1ccc(O)c(C(=O)/C=C/c2cc3ccccc3o2)c1`, the IC50 in assay [2] is 4.85 µM (active); at Perilipin-1/ABHD5, 4.8 µM (active).

As usually defined, the EC50 is the midpoint of the concentration-response curve. In general, AC50 refers to the concentration giving half of the maximal activity seen. Turning to `CCC(C)Sc1cc(-c2nc3ccccn3c2NC2CCCCC2)ccc1OC` (configuration not stated), the results for the EC50 (in assay [3]; on Streptokinase A; with Streptococcus) were 2.28 µM (active), 15 µM (active) and 7.68 µM (active), respectively. Moreover, the AC50 is 2.69 µM (active) on Trypsin; 7.58 µM (active) on CAAX prenyl protease 2; 15.7 µM (active) in [4]; 18.2 µM (active) in assay [5]; 2.82 µM (active) in assay [6]; 3.11 µM (active) in [7]. In addition, in assay [8], the AC50 was 21.1 µM (active).

As for `COc1cccc(N=C2SC(C(=O)Nc3ccc(F)cc3)CC(=O)N2C)c1` (configuration not stated), the IC50 in [9] and in assay [10] was > 100 µM (inactive) throughout.

Regarding `O=C(Cn1sc2cc(F)ccc2c1=O)Nc1ccccc1`, the IC50 at Hexokinase is 4.34 µM (active).

Consider `COc1ccc(C(=O)c2c(C)oc3ccc(O)c(CN4CCOCC4)c23)cc1`, for which, on Coagulation factor XII, the IC50 was > 50 µM (inactive).
